From a melting point compilation (Tetko et al.; mined from patent text by program, amines drawn as free bases though some values may be those of a salt)

First: COc1cc2nc(N)nc(-c3ccccc3Cl)c2cc1OC
Second: CNc1nc(-c2cccc(NC(=O)c3cccnc3N3CCCC3)c2)c2cc(OC)c(OC)cc2n1
The melting point of the first is higher: 247 to 280 °C for the first, 135 to 137 °C for the second.

First: CN1CCC(N2C(=O)CN=C(c3ccccc3Cl)c3cc(Cl)ccc32)CC1
Second: O=C(Oc1ccccc1Cl)c1ncn2c1[C@@H]1CCCN1C(=O)c1c(Cl)cccc1-2
The melting point of the first is lower: 146 to 147 °C for the first, 214 to 215 °C for the second.

First: CCCCn1c(=O)c2c(nc(C)n2S(=O)(=O)CCCCl)n(CCCC)c1=O
Second: CCCCN(CCCC)C(=O)Nc1ccc(C)cc1C
The melting point of the first is higher: 76 to 78 °C for the first, 48 to 50 °C for the second.

Compared with O=C(C=Cc1ccc(C(F)(F)F)cc1)N1CCc2c([nH]c3ccccc23)C1c1ccc2c(c1)OCO2 (stereo not given), O=C(O)/C=C/C(=O)/C=C/c1ccc(C(F)(F)F)cc1 is lower in melting point: 233 °C for the first, 192 to 195 °C for the second.

First: COc1ccc2[nH]c(CCCCCCCCCCCCCCO)cc2c1
Second: COc1ccc2c(c1)c(-c1cc3cc(-c4ccccc4)cnc3[nH]1)cn2C
The melting point of the first is lower: 68 to 69 °C for the first, 240 to 242 °C for the second.

Cc1nc(N2CCc3ccsc3CC2)c([N+](=O)[O-])c(=O)[nH]1 and CCOC(=O)c1c[nH]c2nc(N3CCN(C(C)=O)CC3)c(F)cc2c1=O cannot be ordered by melting point: > 200 °C for the first, 290 to 295 °C for the second.

First: CN1CCN(C(=S)Cc2ccc(S(C)(=O)=O)cc2)CC1
Second: COc1ccc(C(=O)NC[C@@H](C(=O)NO)N2CCN(S(C)(=O)=O)CC2)cc1
The melting point of the first is higher: 172 to 177 °C for the first, 158 °C for the second.

Going from CCN(CC)CCC1CCN(C(=O)N2c3ccccc3C(=O)Nc3cccnc32)CC1 to CC(C)(C)OC(=O)N1CCC(OCc2ccccc2)C1CC(O)Cn1cnc2cccc(C(F)(F)F)c2c1=O (stereo not given), the melting point rises from 154 °C to 224 °C.

First: CCCc1nc2c(c(C)c(C)n3nnnc23)n1CC(C)(C)N
Second: CCOC(=O)c1cc(NCc2ccccc2)c(Oc2ccc(OC)cc2)c(S(N)(=O)=O)c1
The melting point of the first is lower: 154 to 156 °C for the first, 189 to 190 °C for the second.

Compared with CC1(CN)CN(c2cc3c(cc2F)c(=O)c(C(=O)O)cn3C2CC2)C1, CCOC(=O)c1cn(C2CCCO2)c(=O)[nH]c1=O (stereo not given) is lower in melting point: 274 to 279 °C for the first, 125 °C for the second.

First: O=C1CC(c2ccc(F)cc2)Cc2occ(C(F)(F)F)c21 (stereo not given)
Second: O=C1Cc2ccccc2N1CC(F)(F)F
The melting point of the first is lower: 105 to 106 °C for the first, 155 to 162 °C for the second.

Compared with O=C1c2ccc([N+](=O)[O-])cc2C(=O)N1CC(=O)N1c2ccccc2N(Cc2ccccc2)C(=O)[C@H]2CCC[C@H]21 (relative stereo), O=c1oc(-c2ccccc2)cc(O)c1C(CC1CC1)SCc1ccccc1 (stereo not given) is lower in melting point: 196 to 198 °C for the first, 59 to 61 °C for the second.

First: O=C(O)CNc1nc(NCc2ccc(NC(=O)c3ccc(F)cc3)cc2)c2ccccc2n1
Second: Nc1ccc(-c2cc3ccccn3c2C(=O)CCC(=O)O)cc1
The melting point of the first is higher: 235 °C for the first, 86 to 88 °C for the second.

First: CN1C(=O)N(c2ccc(Cl)cc2)S(=O)(=O)c2ccc(O)cc21
Second: Cc1ccc(-c2ccccc2)cc1Cn1c(C(F)F)nn(C)c1=O
The melting point of the first is higher: > 250 °C for the first, 72.7 °C for the second.

Compared with CN(C)C1CCCN(C(=O)c2ccc(N)cc2)c2ccccc21 (stereo not given), O=C(O)c1ccccc1Nc1ccnn1-c1ccccn1 is higher in melting point: 120 to 122 °C for the first, 216 to 218 °C for the second.

First: CC(C)n1c(/C=C/C(O)CC(O)CC(=O)OC(C)(C)C)c(-c2ccc(F)cc2)c2ncccc21 (stereo not given)
Second: COc1c(OCc2ccccc2)ccc2[nH]ccc(=O)c12
The melting point of the first is lower: 62 to 65 °C for the first, 180 °C for the second.

Compared with CN1CCN(CCCNc2sc(-c3cc[nH]n3)c3c2C(=O)CC(C)(C)C3)CC1, COc1ccc(N2CCN(n3cnn(C)c3=O)CC2)cc1 is higher in melting point: 160 to 163 °C for the first, 178 °C for the second.

First: O=c1[nH]c2ccc(-c3ncc[nH]3)cc2[nH]c1=O
Second: N#CCc1c[nH]c2cccnc12
The melting point of the first is higher: > 300 °C for the first, 201 to 202 °C for the second.

Compared with CS(=O)(=O)Nc1ccc(C(O)CCCNCCC(=O)CCC2CCCC2)cc1 (stereo not given), N#CSCCNc1ccc(Cl)cc1[N+](=O)[O-] is higher in melting point: 101 to 102 °C for the first, 154 to 155 °C for the second.

Compared with COc1cc(C)nc(N(C)C#N)n1, Fc1ccccc1-c1cnc2nncn2n1 is higher in melting point: 123 °C for the first, 193 to 196 °C for the second.
